This is an account of results in the supplement of paper PMC11061612.

Experiment [1] has as its system EW-11 (Ewing's Sarcoma). The experiment can be described thus: combination Emax (second highest fraction inhibited in the dose matrix, 72 h); higher = more inhibition; extreme values may be limits of the assay. Put shortly: (§1)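 Cell lines grown in DMEM/F12 or RPMI with 10% FBS were plated in 1536-well plates and held 24 hours at 37°C, 5% CO2 before 72 hours of exposure to two-drug dose matrices, with DMSO typically at 0.2%. CellTiter-Glo 2.0 luminescence gave viability, which was converted to inhibition. Vehicle wells were set to 0 and blank wells to 1. Combination Emax is the second-highest inhibition in the matrix, and Bliss excess is the observed combination effect minus the expected EA + EB − EA·EB, where EA and EB are the single-agent effects.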

Experiment [2] relates to LNZTA3WT4 (Low Grade Glioma). The experiment is described as above. Put shortly: as §1
In experiment [3] the test system is OE21 (Esophageal Squamous Cell Carcinoma). The description is as above. A digest of the protocol: as §1
Experiment [4] relates to BE2-M17 (Neuroblastoma). The description is as above. A digest of the protocol: as §1
Experiment [5] deals with NUGC-4 (Gastric Carcinoma). Described as above. Put shortly:
as §1

The test system of experiment [6] is SW1573 (Lung Adenocarcinoma). The experiment is described as above. Put shortly: as §1
For experiment [7], the system named is MHH-CALL-2 (B-Lymphoblastic Leukemia). The experiment is described as above. Put shortly:
as §1

Experiment [8] relates to LCLC-97TM1 (Non-Small Cell Lung Carcinoma). The experiment is described as above. Put shortly:
as §1

The test system of experiment [9] is CAL-72 (Osteosarcoma). The description is as above. Put shortly:
as §1

Experiment [10] has as its system FTC-133 (Thyroid Gland Carcinoma). Described as above. A digest of the protocol: as §1
The subject of experiment [11] is NCI-H2052 (Mesothelioma). The experiment is described as above. A digest of the protocol:
as §1

In experiment [12] the test system is HuCCT1 (Biliary Tract Carcinoma). The description is as above. A digest of the protocol:
as §1

For experiment [13], the system named is HeLa (Cervical Carcinoma). The description is as above. Put shortly: as §1
The test system of experiment [14] is SNU-16 (Gastric Carcinoma). The description is as above. Put shortly:
as §1

Experiment [15] has as its system L-428 (Hodgkin's Lymphoma). The experiment is described as above. A digest of the protocol: as §1
In experiment [16] the test system is LNZTA3WT4 (Low Grade Glioma). The experiment can be described thus: Bliss excess, mean over the matrix (fraction); higher = more synergy. Put shortly:
as §1

For experiment [17], the system named is FTC-133 (Thyroid Gland Carcinoma). The experiment is described as above. A digest of the protocol:
as §1

Experiment [18] concerns YAPC (Pancreatic Carcinoma). The experiment is described as above. Put shortly: as §1
Experiment [19] has as its system Detroit562 (Head and Neck Carcinoma). Described as above. Put shortly:
as §1

Experiment [20] relates to Hs-746T (Gastric Carcinoma). The experiment is described as above. A digest of the protocol: as §1

As to `CC1(C)CCC(CN2CCN(c3ccc(C(=O)NS(=O)(=O)c4ccc(NCC5CCOCC5)c([N+](=O)[O-])c4)c(Oc4cnc5[nH]ccc5c4)c3)CC2)=C(c2ccc(Cl)cc2)C1` [Venetoclax] + CCN(CCO)CCCOc1ccc2c(Nc3cc(CC(=O)Nc4cccc(F)c4)[nH]n3)ncnc2c1 [AZD2811] (first compound max 1 µM, 7x7, partner max 1 µM), the “combination Emax” value is 0.517 in experiment [1]; 0.487 in experiment [2]; 0.159 in experiment [3]; 0.515 in experiment [4]; 0.166 in experiment [5]; 0.286 in experiment [6]. For the same molecule, the “combination Emax” value was determined as 0.292 in experiment [7]; 0.289 in [8]; 0.673 in experiment [9]; 0.495 in [10]; 0.181 in experiment [11]; 0.217 in experiment [12]. Besides, the “combination Emax” value in experiment [13] was 0.279; in [14] it was 0.523; in experiment [15], 0.296. Further, the Bliss excess was 0.0218 in experiment [16]; 0.0192 in experiment [17]; -0.0103 in experiment [18]; -0.013 in [19]; -0.0383 in experiment [20].
As to `CN(CCO)CC[C@H](CSc1ccccc1)Nc1ccc(S(=O)(=O)NC(=O)c2ccc(N3CCC([C@@H](O)c4ccccc4-c4ccc(Cl)cc4)CC3)cc2)cc1S(=O)(=O)C(F)(F)F` [AZD4320] + Cn1cnc2c(F)c(Nc3ccc(Br)cc3Cl)c(C(=O)NOCCO)cc21 [Selumetinib] (first compound max 1 µM, 7x7, partner max 3 µM), the “combination Emax” value was 0.934 in experiment [1]; 0.329 in experiment [2]; 0.413 in experiment [3]; 0.852 in [4]; 0.766 in experiment [5]; 0.575 in [6]. The “combination Emax” value in [7] was found to be 0.965; in experiment [8], 0.489; in experiment [9] it was 0.51; in [10], 0.74; in experiment [11], 0.262; in experiment [12], 0.571. Moreover, the “combination Emax” value in [13] was 0.397; in experiment [14], 0.649; in [15], 0.737. For the same molecule, the Bliss excess in experiment [16] was -0.0656; in experiment [17], -0.0023; in [18], 0.0082; in experiment [19] it was 0.072; in [20], 0.0402.
For the molecule `CC1(C)CCC(CN2CCN(c3ccc(C(=O)NS(=O)(=O)c4ccc(NCC5CCOCC5)c([N+](=O)[O-])c4)c(Oc4cnc5[nH]ccc5c4)c3)CC2)=C(c2ccc(Cl)cc2)C1` [Venetoclax] + C[C@@H](Nc1cc(F)cc(F)c1)c1cc(C(=O)N(C)C)cc2c(=O)cc(N3CCOCC3)oc12 [AZD8186] (first compound max 1 µM, 7x7, partner max 3 µM), the “combination Emax” value in experiment [1] stood at 0.699; in experiment [2], 0.185; in [3], 0.109; in experiment [4], 0.276; in experiment [5] it was 0.287; in experiment [6], 0.136. Moreover, the “combination Emax” value turned out to be 0.294 in experiment [7]; 0.129 in experiment [8]; 0.406 in experiment [9]; 0.182 in experiment [10]; 0.217 in [11]; 0.185 in [12]. The “combination Emax” value in [13] turned out to be 0.124; in [14], 0.251; in experiment [15], 0.196. Further, the Bliss excess in experiment [16] was -0.0539; in [17], -0.0168; in experiment [18], -0.048; in experiment [19], -0.0336; in [20], -0.004.
Consider `NC1(C(=O)N[C@@H](CCO)c2ccc(Cl)cc2)CCN(c2ncnc3[nH]ccc23)CC1` [Capivasertib] + COc1nnc2ccc(N3CCC(c4ccc(OCCN5CCN(C)C(=O)[C@H]5C)cc4)CC3)nn12 [AZD5153] (first compound max 10 µM, 7x7, partner max 1 µM), for which the “combination Emax” value in [1] came out at 0.948; in experiment [2], 0.57; in experiment [3], 0.882; in [4], 0.696; in [5] it was 0.542; in experiment [6], 0.409. Further, the “combination Emax” value in [7] was 0.338; in experiment [8] it was 0.805; in [9] it was 0.481; in [10], 0.73; in experiment [11], 0.427; in experiment [12] it was 0.609. In addition, the entries for the “combination Emax” value in experiment [13], in experiment [14] and in [15] were 0.423, 0.854 and 0.742, respectively. The Bliss excess was 0.0305 in experiment [16]; 0.0923 in experiment [17]; 0.007 in experiment [18]; -0.0212 in [19]; 0.0169 in experiment [20].
As for `Cc1c2c(nn1C)CSCc1cc(n(C)n1)CSc1cc(c3ccccc3c1)OCCCc1c(C(=O)O)n(C)c3c-2c(Cl)ccc13` [AZD5991] + C[C@@H]1COCCN1C2=NC(=NC(=C2)C3(CC3)[S@](=N)(=O)C)C4=C5C=CNC5=NC=C4 [AZD6738] (first compound max 1 µM, 7x7, partner max 10 µM), the “combination Emax” value in experiment [1] amounted to 0.932; in [2] it was 0.761; in [3], 0.844; in [4], 0.991; in [5], 0.561; in experiment [6], 0.368. The “combination Emax” value in experiment [7] is 1; in experiment [8] it was 0.894; in experiment [9], 0.832; in experiment [10] it was 0.923; in [11] it was 0.338; in experiment [12], 0.756. The “combination Emax” value in [13] worked out at 0.856; in [14], 1; in [15], 0.808. For the same molecule, the Bliss excess in experiment [16] is -0.0028; in [17], 0.0969; in experiment [18], 0.0715; in experiment [19], 0.0364; in experiment [20], 0.0423.
Take `Cc1c2c(nn1C)CSCc1cc(n(C)n1)CSc1cc(c3ccccc3c1)OCCCc1c(C(=O)O)n(C)c3c-2c(Cl)ccc13` [AZD5991] + Cc1cc2ncnn2cc1Nc1ncc2c(n1)n(C1CCOCC1)c(=O)n2C [AZD7648] (first compound max 1 µM, 7x7, partner max 10 µM): the “combination Emax” value in [1] worked out at 0.837; in experiment [2], 0.318; in experiment [3], 0.385; in [4], 0.9; in [5], 0.279; in experiment [6], 0.19. The “combination Emax” value in experiment [7] was found to be 1; in experiment [8] it was 0.385; in [9], 0.523; in [10] it was 0.649; in experiment [11], 0.394; in experiment [12], 0.406. For the same molecule, the “combination Emax” value was 0.485 in [13], 0.999 in experiment [14] and 0.251 in experiment [15]. The Bliss excess was -0.0144 in experiment [16]; -0.0322 in experiment [17]; 0.0003 in [18]; -0.0172 in [19]; -0.0784 in experiment [20].
